# Experimental data reported in patent publication US6747148B2, “Sulfonamide derivatives as inhibitors of bone resorption and as inhibitors of cell adhesion” (Hoechst Marion Roussel Deutschland GmbH, priority 1998, dated 2004).
# Molecular target: T1, vitronectin receptor αvβ3 (Homo sapiens, UniProt P05106+P06756)
# T1 construct: expressed in transfected cells
# Test: Inhibition of binding of 293 cells to human vitronectin (Vn/293 cell test)
# Assay type: cell-based
# Conditions: 293 cells cotransfected with αv and β3 subunits; plate coated with human vitronectin; 90 minutes at 37° C.
# Excerpt: Test for the Measurement of the Inhibition of Binding of 293 Cells to Human Vitronectin (Vn/293 Cell Test)
# 1. Purification of Human Vitronectin
# Human vitronectin is isolated from human plasma and purified by affinity chromatography according to the method of Yatohyo et al., Cell Structure and Function […]: 281-292 (1988).
# 293 cells, a human embryonic kidney cell line, which are cotransfected with DNA sequences for the αv and β3 subunits of the vitronectin receptor αvβ3, are selected for a high rate of expression (>500,000 αvβ3 receptors/cell) according to the FACS method. The selected cells are cultured and sorted again by means of FACS in order to obtain a stable cell line (15 D) with expression rates >1,000,000 copies of αvβ3 per cell.
# A Linbro 96-well tissue culture plate with a flat bottom is coated overnight at 4° C. with human vitronectin (0.01 mg/ml, 0.05 ml/well) in phosphate-buffered saline solution (PBS) and then blocked with 0.5% strength BSA (bovine serum albumin). Solutions of the test substances from 10^−10 mol/l to 2×10^−3 mol/l in glucose-containing DMEM medium are prepared and 0.05 ml/well of the solution are added to the plate in each case. The cells which express high levels of αvβ3 (for example 15 D) are suspended in glucose-containing DMEM medium and the suspension is adjusted to a content of 25,000 cells/0.05 ml of medium. 0.05 ml of this cell suspension is added to each well and the plate is incubated at 37° C. for 90 minutes. The plate is washed three times with warm PBS in order to remove unbound cells. The bound cells are lyzed in citrate buffer (25 mM, pH 5.0) which contains 0.25% Triton X-100. The hexoseamidase substrate p-nitrophenyl-N-acetyl-β-D-glucosaminide is then added and the plate is incubated at 37° C. for 90 minutes. The reaction is stopped with a glycine (50 mM)/EDTA (5 mM) buffer (ph 10.4), and the absorption of each well is measured at 405-650 nm. The data are analyzed according to standard processes.
# T1 sequence (P06756 31-889 limits assumed): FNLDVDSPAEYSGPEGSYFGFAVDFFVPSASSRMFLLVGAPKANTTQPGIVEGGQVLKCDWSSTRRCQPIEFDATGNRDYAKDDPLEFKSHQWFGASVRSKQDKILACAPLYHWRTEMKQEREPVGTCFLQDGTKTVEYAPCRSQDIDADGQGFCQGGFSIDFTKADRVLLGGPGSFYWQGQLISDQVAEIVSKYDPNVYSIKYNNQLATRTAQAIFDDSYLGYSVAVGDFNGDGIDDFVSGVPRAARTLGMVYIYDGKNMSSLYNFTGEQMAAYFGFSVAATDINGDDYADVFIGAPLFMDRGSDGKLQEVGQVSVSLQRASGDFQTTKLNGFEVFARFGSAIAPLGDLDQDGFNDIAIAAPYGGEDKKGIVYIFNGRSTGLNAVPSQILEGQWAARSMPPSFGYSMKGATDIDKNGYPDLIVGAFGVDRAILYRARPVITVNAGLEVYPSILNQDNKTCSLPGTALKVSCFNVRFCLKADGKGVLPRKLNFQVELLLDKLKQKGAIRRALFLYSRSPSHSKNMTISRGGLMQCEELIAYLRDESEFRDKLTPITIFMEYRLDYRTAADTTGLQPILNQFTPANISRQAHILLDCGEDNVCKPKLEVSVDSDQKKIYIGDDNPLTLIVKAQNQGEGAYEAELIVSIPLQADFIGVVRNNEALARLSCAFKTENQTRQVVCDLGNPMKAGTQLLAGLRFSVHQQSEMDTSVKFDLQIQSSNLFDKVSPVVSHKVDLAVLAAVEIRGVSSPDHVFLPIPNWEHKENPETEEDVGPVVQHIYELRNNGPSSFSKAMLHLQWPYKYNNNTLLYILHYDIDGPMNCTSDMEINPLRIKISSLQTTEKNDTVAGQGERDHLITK
# T1 sequence (P06756 891-1048 partner limits assumed): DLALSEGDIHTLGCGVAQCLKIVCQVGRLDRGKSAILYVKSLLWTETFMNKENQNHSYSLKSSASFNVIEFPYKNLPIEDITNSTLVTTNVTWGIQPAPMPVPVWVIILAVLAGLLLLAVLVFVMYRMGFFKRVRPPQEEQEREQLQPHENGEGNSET
# T1 sequence (P05106 27-788): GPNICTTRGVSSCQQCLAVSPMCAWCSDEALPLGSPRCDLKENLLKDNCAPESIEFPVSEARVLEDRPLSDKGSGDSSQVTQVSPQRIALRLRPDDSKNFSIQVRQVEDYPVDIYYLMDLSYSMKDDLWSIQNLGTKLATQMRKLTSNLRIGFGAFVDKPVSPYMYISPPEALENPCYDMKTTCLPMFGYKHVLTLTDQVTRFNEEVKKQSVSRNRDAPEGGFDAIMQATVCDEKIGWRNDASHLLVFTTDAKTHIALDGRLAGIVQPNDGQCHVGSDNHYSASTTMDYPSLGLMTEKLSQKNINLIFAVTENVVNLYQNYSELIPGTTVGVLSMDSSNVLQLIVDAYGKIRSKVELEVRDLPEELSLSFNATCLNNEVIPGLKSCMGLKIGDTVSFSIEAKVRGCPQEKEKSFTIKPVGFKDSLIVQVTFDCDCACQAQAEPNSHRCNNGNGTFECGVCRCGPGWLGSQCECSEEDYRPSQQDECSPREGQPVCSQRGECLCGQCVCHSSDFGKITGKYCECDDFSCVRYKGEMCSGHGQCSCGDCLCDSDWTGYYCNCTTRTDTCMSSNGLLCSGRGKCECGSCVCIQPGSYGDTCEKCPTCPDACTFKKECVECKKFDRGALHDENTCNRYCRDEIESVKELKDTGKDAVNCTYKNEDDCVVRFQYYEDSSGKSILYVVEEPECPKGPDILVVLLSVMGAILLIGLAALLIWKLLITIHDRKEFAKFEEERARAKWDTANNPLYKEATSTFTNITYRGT
row,SMILES,IC50 [nM]
1,"O=C(CCc1ccc(C(=O)NC[C@H](NS(=O)(=O)c2ccc(Cl)cc2)C(=O)O)cc1)NC1=NCCCN1 [Example 13, (2S)-^2-(4-Chloro-benzenesulfonylamino)-3-(4-(2-(1,4,5,6-tetrahydropyrimidin-2-ylcarbamoyl)-ethyl)-benzoylamino)-propionic acid]",27
2,"CC(C)CS(=O)(=O)N[C@@H](CNC(=O)c1ccc(CCC(=O)NC2=NCCCN2)cc1)C(=O)O [Example 9, (2S)-2-(2-Methyl-propane-1-sulfonylamino)-3-(4-(2-(1,4,5,6-tetrahydropyrimidin-2-ylcarbamoyl)-ethyl)-benzoylamino)-propionic acid]",69
3,"O=C(CCc1ccc(C(=O)NC[C@H](NS(=O)(=O)c2ccccc2)C(=O)O)cc1)NC1=NCCCN1 [Example 17, (2S)-2-Benzenesulfonylamino-3-(4-(2-(1,4,5,6-tetrahydropyrimidin-2-ylcarbamoyl)-ethyl)-benzoylamino)-propionic acid]",9
4,"CC(C)(C)c1ccc(S(=O)(=O)N[C@@H](CNC(=O)c2ccc(CCC(=O)NC3=NCCCN3)cc2)C(=O)O)cc1 [Example 5, (2S)-2-(4-tert-Butyl-benzenesulfonylamino)-3-(4-(2-(1,4,5,6-tetrahydropyrimidin-2-ylcarbamoyl)-ethyl)-benzoylamino)-propionic acid]",18
5,"CC1(C)C2CCC1(CS(=O)(=O)N[C@@H](CNC(=O)c1ccc(CCC(=O)NC3=NCCCN3)cc1)C(=O)O)C(=O)C2 (stereo partly drawn) [Example 12, (2S)-2-(7,7-Dimethyl-2-oxo-bicyclo[2.2.1]hept-1-ylmethanesulfonylamino)-3-(4-(2-(1,4,5,6-tetrahydropyrimidin-2-ylcarbamoyl)-ethyl)-benzoylamino)-propionic acid]",27
6,"O=C(CCc1ccc(C(=O)NC[C@H](NS(=O)(=O)c2cccc3ccccc23)C(=O)O)cc1)NC1=NCCCN1 [Example 1, (2S)-2-(Naphthalene-1-sulfonylamino)-3-(4-(2-(1,4,5,6-tetrahydropyrimidin-2-ylcarbamoyl)-ethyl)-benzoylamino)-propionic acid]",6
7,"O=C(CCc1ccc(C(=O)NC[C@H](NS(=O)(=O)c2cccs2)C(=O)O)cc1)NC1=NCCCN1 [Example 18, (2S)-3-(4-(2-(1,4,5,6-Tetrahydropyrimidin-2-ylcarbamoyl)-ethyl)-benzoylamino)-2-(thiophene-2-sulfonylamino)-propionic acid]",14
8,"CCCCOc1ccc(S(=O)(=O)N[C@@H](CNC(=O)c2ccc(CCC(=O)NC3=NCCCN3)cc2)C(=O)O)cc1 [Example 10, (2S)-2-(4-Butoxy-benzenesulfonylamino)-3-(4-(2-(1,4,5,6-tetrahydropyrimidin-2-ylcarbamoyl)-ethyl)-benzoylamino)-propionic acid]",29
9,"Cc1cc(C)c(S(=O)(=O)N[C@@H](CNC(=O)c2ccc(CCC(=O)NC3=NCCCN3)cc2)C(=O)O)c(C)c1 [Example 21, (2S)-3-(4-(2-(1,4,5,6-Tetrahydropyrimidin-2-ylcarbamoyl)-ethyl)-benzoylamino)-2-(2,4,6-trimethyl-benzenesulfonylamino)-propionic acid]",21
10,"N#Cc1ccccc1S(=O)(=O)N[C@@H](CNC(=O)c1ccc(CCC(=O)NC2=NCCCN2)cc1)C(=O)O [Example 11, (2S)-2-(2-Cyano-benzenesulfonylamino)-3-(4-(2-(1,4,5,6-tetrahydropyrimidin-2-ylcarbamoyl)-ethyl)-benzoylamino)-propionic acid]",24
11,"O=C(CCc1ccc(C(=O)NC[C@H](NS(=O)(=O)c2cccc(C(F)(F)F)c2)C(=O)O)cc1)NC1=NCCCN1 [Example 15, (2S)-3-(4-(2-(1,4,5,6-Tetrahydropyrimidin-2-ylcarbamoyl)-ethyl)-benzoylamino)-2-(3-trifluoromethyl-benzenesulfonylamino)-propionic acid]",6
12,"O=C(CCc1ccc(C(=O)NC[C@H](NS(=O)(=O)c2cccc3cccnc23)C(=O)O)cc1)NC1=NCCCN1 [Example 2, (2S)-2-(Quinoline-8-sulfonylamino)-3-(4-(2-(1,4,5,6-tetrahydropyrimidin-2-ylcarbamoyl)-ethyl)-benzoylamino)-propionic acid]",52
13,"CCCS(=O)(=O)N[C@@H](CNC(=O)c1ccc(CCC(=O)NC2=NCCCN2)cc1)C(=O)O [Example 6, (2S)-2-(Propane-1-sulfonylamino)-3-(4-(2-(1,4,5,6-tetrahydropyrimidin-2-ylcarbamoyl)-ethyl)-benzoylamino)-propionic acid]",32

# Continued by falling IC50, values first:
row,IC50 [nM],SMILES
1,100,"CS(=O)(=O)N[C@@H](CNC(=O)c1ccc(CCC(=O)NC2=NCCCN2)cc1)C(=O)O [Example 24, (2S)-2-Methanesulfonylamino-3-(4-(2-(1,4,5,6-tetrahydropyrimidin-2-ylcarbamoyl)-ethyl)-benzoylamino)-propionic acid]"
2,38,"O=C(CCc1ccc(C(=O)NC[C@H](NS(=O)(=O)c2ccc(-c3ccccc3)cc2)C(=O)O)cc1)NC1=NCCCN1 [Example 19, (2S)-2-(Biphenyl-4-sulfonylamino)-3-(4-(2-(1,4,5,6-tetrahydropyrimidin-2-ylcarbamoyl)-ethyl)-benzoylamino)-propionic acid]"
3,30,"CCCCS(=O)(=O)N[C@@H](CNC(=O)c1ccc(CCC(=O)NC2=NCCCN2)cc1)C(=O)O [Example 23, (2S)-2-(Butane-1-sulfonylamino)-3-(4-(2-(1,4,5,6-tetrahydropyrimidin-2-ylcarbamoyl)-ethyl)-benzoylamino)-propionic acid]"
4,28,"O=C(CCc1ccc(C(=O)NC[C@H](NS(=O)(=O)/C=C/c2ccccc2)C(=O)O)cc1)NC1=NCCCN1 [Example 7, (2S)-2-(2-Phenyl-ethenesulfonylamino)-3-(4-(2-(1,4,5,6-tetrahydropyrimidin-2-ylcarbamoyl)-ethyl)-benzoylamino)-propionic acid]"
5,27,"CC(=O)Nc1ccc(S(=O)(=O)N[C@@H](CNC(=O)c2ccc(CCC(=O)NC3=NCCCN3)cc2)C(=O)O)cc1 [Example 3, (2S)-2-(4-Acetylamino-benzenesulfonylamino)-3-(4-(2-(1,4,5,6-tetrahydropyrimidin-2-ylcarbamoyl)-ethyl)-benzoylamino)-propionic acid]"
6,26,"COc1ccc(S(=O)(=O)N[C@@H](CNC(=O)c2ccc(CCC(=O)NC3=NCCCN3)cc2)C(=O)O)cc1 [Example 16, (2S)-2-(4-Methoxy-benzenesulfonylamino)-3-(4-(2-(1,4,5,6-tetrahydropyrimidin-2-ylcarbamoyl)-ethyl)-benzoylamino)-propionic acid]"
7,20,"CCCc1ccc(S(=O)(=O)N[C@@H](CNC(=O)c2ccc(CCC(=O)NC3=NCCCN3)cc2)C(=O)O)cc1 [Example 8, (2S)-2-(4-Propyl-benzenesulfonylamino)-3-(4-(2-(1,4,5,6-tetrahydropyrimidin-2-ylcarbamoyl)-ethyl)-benzoylamino)-propionic acid]"
8,10,"O=C(CCc1ccc(C(=O)NC[C@H](NS(=O)(=O)c2cccc(Cl)c2)C(=O)O)cc1)NC1=NCCCN1 [Example 14, (2S)-2-(3-Chloro-benzenesulfonylamino)-3-(4-(2-(1,4,5,6-tetrahydropyrimidin-2-ylcarbamoyl)-ethyl)-benzoylamino)-propionic acid]"
9,10,"O=C(CCc1ccc(C(=O)NC[C@H](NS(=O)(=O)c2ccc(C(F)(F)F)cc2)C(=O)O)cc1)NC1=NCCCN1 [Example 22, (2S)-3-(4-(2-(1,4,5,6-Tetrahydropyrimidin-2-ylcarbamoyl)-ethyl)-benzoylamino)-2-(4-trifluoromethyl-benzenesulfonylamino)-propionic acid]"
10,5,"O=C(CCc1ccc(C(=O)NC[C@H](NS(=O)(=O)c2ccc3ccccc3c2)C(=O)O)cc1)NC1=NCCCN1 [Example 20, (2S)-2-(Naphthalene-2-sulfonylamino)-3-(4-(2-(1,4,5,6-tetrahydropyrimidin-2-ylcarbamoyl)-ethyl)-benzoylamino)-propionic acid]"
